Measured values as given in patent US7550438B2, “Methods for production of growth-promoting proteins and peptides for kidney epithelial cells” (The University of Chicago, priority 1997, dated 2009).

Legend:
[1] = tested on: monkey kidney epithelial cells of the BSC-1 line; assay: Growth-promoting (mitogenic) activity: number of cells in BSC-1 cultures counted four days after addition; assay type: cell-based, African green monkey
Method: For the assay, cells were detached from the dish with a solution of trypsin and an aliquot was counted in a hemocytometer.
Nontransformed monkey kidney epithelial cells of the BSC-1 line were grown to confluence in Dulbecco's modified Eagle's medium containing 1% calf serum and […] in 55-mm culture dishes at 38° C. in a CO2 incubator. When cells achieved a density of about 10^6 per dish, the spent medium was removed and replaced with fresh medium containing 0.5% calf serum and the 14-amino acid peptide (0.5 μg/ml). Additions of each of the mitogenic signals at maximal concentration were made to the culture medium. Four days later the number of cells in each culture was counted in a hemocytometer. Values obtained were the mean of 3 separate cultures.
Nontransformed monkey kidney epithelial cells of the BSC-1 line were grown to confluence in Dulbecco's modified Eagle's medium containing 1% calf serum and 1.6 μM biotin at 38° C. in a CO2 incubator. When cells achieved a density of about 10^6 per dish, the spent medium was removed and replaced with fresh medium containing 0.5% calf serum and different amounts of the two peptides. Four days later the number of cells in each culture was counted. Each value is the mean of 3 separate cultures.
To delineate the sequence of the smallest peptide that could stimulate renal cell growth, synthetic peptides of different lengths were prepared (see below), and purified by reversed-phase HPLC on a C18 column.
The peptide of interest was then purified on a reversed-phase C18 column HPLC as described herein using a gradient of 1-80% acetonitrile in 0.1% trifluroacetic acid (TFA). The purified peptide was then lyophilized to remove the acetonitrile and TFA and the lyophilized powder was weighed, dissolved in buffer and added to the culture medium to measure its effect on the growth of monkey kidney epithelial cells as described herein. […] A value termed the K1/2, was used.

[2] = tested on: BSC-1 cells; assay: Time of contact with cells required to commit them to accelerated growth (washout, count at four days); assay type: cell-based, African green monkey; conditions: peptide then washed off, cells counted four days later
Method: Confluent monolayers of BSC-1 cells are prepared as herein and exposed to the 14-Ser peptide (0.5 μg/ml) for different amounts of time (0 to 30 minutes). At the end of the defined exposure period, culture medium containing the mitogen was aspirated, the monolayer was rinsed to remove non-adherent peptide, and fresh medium was added. Four days later the number of cells in the culture was counted.
In these experiments a solution containing the peptide of interest was added to the cell monolayer; culture medium was then aspirated at a specified time thereafter. Then fresh medium without the peptide was added and the number of cells was counted four days later.

[3] = tested on: rats with mercuric chloride-induced acute renal failure; assay: Mercuric chloride-induced acute renal failure in rats: survival and renal function; assay type: in vivo, rat
Source text: Nephrotoxic and ischemic acute renal failure (ARF) induced experimentally in rats have long been used to model this syndrome in humans. […] Male rats weighed 200-225 gm at the start of the experiment. This dose was used because preliminary experiments indicated it results in survival of 25-50% of the animals 7 days later. […] An increase in serum creatinine concentration signals a decline in renal function because the injured kidney is unable to excrete endogenous creatinine in the urine so it accumulates in the blood.
The synthetic peptide […] (14-Ser) (SEQ ID NO: 15) (dissolved in sterile 0.01% bovine serum albumin in phosphate-buffered saline) was injected subcutaneously into rats to determine its effect on survival, recovery of renal fucntion, and stimulation of DNA synthesis. Multiple different peptides were studied including 14-Ser, […] (14-mer) (SEQ ID NO: 39), […] (16-mer) (SEQ ID NO: 4) […] (11-mer) (SEQ ID NO: 6), and […] (11-mer) (SEQ ID NO: 41). Different concentrations and times of administration were tested and compared.
Acute tubular necrosis was induced in 44 rats by the subcutaneous (s.c.) injection of mercuric chloride, and a single dose of 14-ser was administered s.c. 1 hour afterwards. Different amounts of the peptide were given to assesses its capacity to affect the outcome. Survival 7 days later was about twice as high in animals given 100-150 μg of peptide (63%) than in rats given 0-75 μg peptide (29%).
To determine the effect of the peptide on survival and recovery of renal function, acute tubular necrosis was induced in 59 rats; 29 received 14-Ser (100 μg/rat) and 30 received an equal volume of the vehicle s.c. 1 hour after administration of mercuric chloride. Enhanced survival (top panel) and renal functional recovery (bottom panel) of rats give a WGF-derived peptide after mercuric chloride-induced acute tubular necrosis are shown in FIG. 2A and FIG. 2B. Mercuric chloride was injected subcutaneously into each of the 59 rats, and 1 hour later 100 μg of WGF peptide (14-Ser) (n=29 rats) or the vehicle […] was given. Survival was greater in rats given the peptide than in animals receiving the vehicle as early as day 3 after administration of mercuric chloride. Blood was obtained from the tail vein on the days indicated, and serum creatinine concentration was measured. […] On days 2, 3 and 4, the lower creatinine concentration in peptide-treated rats indicates accelerated recovery of kidney function.
Experimental ARF was induced in rats by subcutaneous injection of mercuric chloride. The synthetic peptide […] […] In one experiment a total of 17 rats were injected with a dose of mercuric chloride shown to induce ARF. The different amounts of the peptide (known to stimulate growth of kidney cells in culture) were injected into the animals to assess capacity to improve the outcome. […] In contrast, two of three rats given 100 micrograms of peptide were alive, as were five of six given 200 micrograms. In summary, none of eight rats (0%) given up to 50 micrograms of peptide survived, whereas seven of nine (78%) given 100-200 micrograms did. Thus, the 11-mer WGF peptide improves survival in nephrotoxic ARF.
[…] Four days later, 63% of rats given the 14-Ser peptide were alive compared to 25% of animals receiving the vehicle (chi squared, P-0.0499); 50% of rats receiving EGF were alive (chi squared, P=N.S.). On day 5, 50% of rats given EGF were alive, compared to 12.5% of animals given the vehicle (chi squared, P=0.0436). […] These observations indicate that the 14-Ser peptide and EGF given after renal injury are similar in their ability to improve survival from the ARF syndrome.

[4] = tested on: BSC-1 cells; assay: Appearance or release of WGF growth-promoting activity from BSC-1 cells (scrape wounding, heparinase); assay type: cell-based, African green monkey; conditions: for appearance of growth-promoting activity after wounding: cells preincubated 10 minutes with the protease inhibitor
Method: None of these agents inhibited cell growth when added to cells of nonwounded cultures. When added to the medium after the appearance of WGF mitogenic activity, neither PMSF nor aprotinin appeared to inhibit the increment in cell proliferation.
Confluent monolayer cultures were mechanically scraped using a 200 μL pipet tip (Continental Laboratory Products, San Diego, Calif.). […] (This process of scraping the cells has been termed “wounding” and has been used for many years as a model system to study repair of corneal abrasions of the eye. In effect, pressure is applied to cells sufficient to disrupt intercellular adhesion). To determine whether kidney epithelial cells released an autocrine growth factor into the medium after wounding, conditioned culture medium was removed from the culture dish after scrape-wounding a monolayer of BSC-1 cells. An aliquot was assayed for any growth-promoting activity on a nonwounded “detector” culture (1.2×10^6 cells per […]).
Treatment of a confluent monolayer of BSC-1 cells with the enzyme heparinase I (Sigma), but not heparinase III (Sigma), releases WGF mitogenic activity from cells into the culture media. However, this seems to deplete WGF, at least temporarily. When cells are first treated with heparinase I, rinsed, the media aspirated, and the monolayer is then scrape-wounded, no growth-promoting activity is detected in the conditioned media.

Question: Which “concentration equivalent in mitogenic potency to partially-purified WGF” value [1] does the source give for “epidermal growth factor [EGF, reference compound]” here?
Answer: 0.015 µg/mL

Question: What about the “stimulation of growth (increase in cell number compared to control at four days)” value ([1]; agent alone at maximal mitogenic concentration (14-Ser 0.5 μg/ml; EGF, IGF-I 50 ng/ml; acidic FGF 100 pg/ml; basic FGF 1,000 pg/ml; vasopressin 75 pg/ml; K 10.4 mM; Na 180 mM)) of the same molecule?
Answer: 31%

Question: And the “combined mitogenic effect with WGF (additivity)” value ([1]; maximal concentrations, 11-mer with wound conditioned buffer)?
Answer: additive

Question: And the “stimulation of growth in the presence of the 14-Ser peptide” value ([1]; mitogenic signal at maximal concentration plus 14-Ser peptide 0.5 μg/ml, four days)?
Answer: 61%

Question: What about the “exposure time sufficient for maximal growth stimulation (commitment time)” value [2] of the same molecule?
Answer: 4 min

Question: And the “survival on day 6” value ([3]; 14-Ser 100 μg 1 hour after, EGF 20 μg 2 hours after mercuric chloride, vehicle 12%)?
Answer: 37.5%

Question: What about the “survival four days later” value ([3]; 14-Ser 100 μg s.c. 1 hour after, EGF 20 μg s.c. 2 hours after mercuric chloride 2.25 mg/kg, vehicle 25%) of the same molecule?
Answer: 50%

Question: And the “survival on day 5” value ([3]; EGF 20 μg s.c. 2 hours after mercuric chloride, vehicle 12.5%)?
Answer: 50%

Question: And the “survival on day 4” value ([3]; given 24 hours before mercuric chloride (EGF 20 μg, s.c.))?
Answer: 25%

Question: Which “appearance of growth-promoting activity after wounding” value (from here on “appearance”) [4] does the source give for `Cc1ccc(S(=O)(=O)N[C@@H](CCCCN)C(=O)CCl)cc1.Cl` [TLCK, L-1-chloro-3-(4-tosylamido)-7-amino-2-heptanone-hydrochloride] here?
Answer: prevented

Question: With `O=S(=O)(F)Cc1ccccc1` [PMSF, phenylmethylsulfonyl-fluoride] as the molecule, how does the “appearance” value [4] read?
Answer: prevented

Question: aprotinin was tested. Which “appearance” value [4] did it give?
Answer: prevented

B1: heparinase I: enzyme heparinase I (Sigma) (protein, UniProt Q05819 22-384, looked up)
Heparin lyase I: QQKKSGNIPYRVNVQADSAKQKAIIDNKWVAVGINKPYALQYDDKLRFNGKPSYRFELKAEDNSLEGYAAGETKGRTELSYSYATTNDFKKFPPSVYQNAQKLKTVYHYGKGICEQGSSRSYTFSVYIPSSFPDNATTIFAQWHGAPSRTLVATPEGEIKTLSIEEFLALYDRMIFKKNIAHDKVEKKDKDGKITYVAGKPNGWKVEQGGYPTLAFGFSKGYFYIKANSDRQWLTDKADRNNANPENSEVMKPYSSEYKTSTIAYKMPFAQFPKDCWITFDVAIDWTKYGKEANTILKPGKLDVMMTYTKNKKPQKAHIVNQQEILIGRNDDDGYYFKFGIYRVGNSTVPVTYNLSGYSETAR
Question: B1 was tested. Which “release of WGF mitogenic activity from cells into the culture media” value ([4]; confluent monolayer treated with the enzyme) did it give?
Answer: releases

B2: α2-macroglobulin (protein, UniProt P01023 24-1474, looked up)
Alpha-2-macroglobulin: SVSGKPQYMVLVPSLLHTETTEKGCVLLSYLNETVTVSASLESVRGNRSLFTDLEAENDVLHCVAFAVPKSSSNEEVMFLTVQVKGPTQEFKKRTTVMVKNEDSLVFVQTDKSIYKPGQTVKFRVVSMDENFHPLNELIPLVYIQDPKGNRIAQWQSFQLEGGLKQFSFPLSSEPFQGSYKVVVQKKSGGRTEHPFTVEEFVLPKFEVQVTVPKIITILEEEMNVSVCGLYTYGKPVPGHVTVSICRKYSDASDCHGEDSQAFCEKFSGQLNSHGCFYQQVKTKVFQLKRKEYEMKLHTEAQIQEEGTVVELTGRQSSEITRTITKLSFVKVDSHFRQGIPFFGQVRLVDGKGVPIPNKVIFIRGNEANYYSNATTDEHGLVQFSINTTNVMGTSLTVRVNYKDRSPCYGYQWVSEEHEEAHHTAYLVFSPSKSFVHLEPMSHELPCGHTQTVQAHYILNGGTLLGLKKLSFYYLIMAKGGIVRTGTHGLLVKQEDMKGHFSISIPVKSDIAPVARLLIYAVLPTGDVIGDSAKYDVENCLANKVDLSFSPSQSLPASHAHLRVTAAPQSVCALRAVDQSVLLMKPDAELSASSVYNLLPEKDLTGFPGPLNDQDNEDCINRHNVYINGITYTPVSSTNEKDMYSFLEDMGLKAFTNSKIRKPKMCPQLQQYEMHGPEGLRVGFYESDVMGRGHARLVHVEEPHTETVRKYFPETWIWDLVVVNSAGVAEVGVTVPDTITEWKAGAFCLSEDAGLGISSTASLRAFQPFFVELTMPYSVIRGEAFTLKATVLNYLPKCIRVSVQLEASPAFLAVPVEKEQAPHCICANGRQTVSWAVTPKSLGNVNFTVSAEALESQELCGTEVPSVPEHGRKDTVIKPLLVEPEGLEKETTFNSLLCPSGGEVSEELSLKLPPNVVEESARASVSVLGDILGSAMQNTQNLLQMPYGCGEQNMVLFAPNIYVLDYLNETQQLTPEIKSKAIGYLNTGYQRQLNYKHYDGSYSTFGERYGRNQGNTWLTAFVLKTFAQARAYIFIDEAHITQALIWLSQRQKDNGCFRSSGSLLNNAIKGGVEDEVTLSAYITIALLEIPLTVTHPVVRNALFCLESAWKTAQEGDHGSHVYTKALLAYAFALAGNQDKRKEVLKSLNEEAVKKDNSVHWERPQKPKAPVGHFYEPQAPSAEVEMTSYVLLAYLTAQPAPTSEDLTSATNIVKWITKQQNAQGGFSSTQDTVVALHALSKYGAATFTRTGKAAQVTIQSSGTFSSKFQVDNNNRLLLQQVSLPELPGEYSMKVTGEGCVYLQTSLKYNILPEKEEFPFALGVQTLPQTCDEPKAHTSFQISLSVSYTGSRSASNMAIVDVKMVSGFIPLKPTVKMLERSNHVSRTEVSSNHVLIYLDKVSNQTLSLFFTVLQDVPVRDLKPAIVKVYDYYETDEFAIAEYNAPCSKDLGNA
Question: For B2, which “appearance” value [4] is on record?
Answer: prevented
